Molecules are shown by their SMILES. Where only a bound is given, the exact number is not on record here.

The target of this assay is T1, Bifunctional epoxide hydrolase 2 (Homo sapiens, UniProt P34913).
T1 sequence (P34913 whole entry): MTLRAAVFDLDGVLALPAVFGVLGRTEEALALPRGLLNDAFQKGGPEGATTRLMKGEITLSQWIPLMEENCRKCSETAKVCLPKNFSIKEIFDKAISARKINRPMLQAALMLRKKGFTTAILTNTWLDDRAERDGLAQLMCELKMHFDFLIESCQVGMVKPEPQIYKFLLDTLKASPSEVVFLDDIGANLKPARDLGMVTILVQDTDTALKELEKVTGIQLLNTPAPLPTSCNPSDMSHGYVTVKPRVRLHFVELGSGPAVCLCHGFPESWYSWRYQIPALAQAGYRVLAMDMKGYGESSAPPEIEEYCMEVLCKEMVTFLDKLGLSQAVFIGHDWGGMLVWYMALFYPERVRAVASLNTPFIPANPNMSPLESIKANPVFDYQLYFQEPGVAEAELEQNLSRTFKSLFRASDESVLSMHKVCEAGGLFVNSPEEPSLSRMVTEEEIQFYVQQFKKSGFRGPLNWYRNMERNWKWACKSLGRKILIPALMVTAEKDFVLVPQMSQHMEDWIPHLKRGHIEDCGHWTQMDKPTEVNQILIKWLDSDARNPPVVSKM
Description: sEH inhibitor concentration-response potency, dose response, biochemical, human sEH, fluorescence, Infinite200 (AID 1026).
Compound `c1ccc(CCN=C2NCCCS2)cc1` [5,6-dihydro-4H-1,3-thiazin-2-yl(phenethyl)amine] yielded a half-inhibitory concentration (IC50) above 10000 nM.

For `O=C1Nc2ccc(S(=O)(=O)N3CCOCC3)c3cccc1c23` [6-(4-morpholinylsulfonyl)-1H-benzo[cd]indol-2-one], the IC50 is above 10000 nM.

The compound `Cc1ccc(NC(=O)NC2CCCCC2)cc1Cl` [1-(3-chloranyl-4-methyl-phenyl)-3-cyclohexyl-urea] displayed a 50% inhibitory concentration (IC50) of 70.5 nM.

In turn, `O=C(CCCOc1ccc(Cl)cc1Cl)NN=CC1CCCCC1` gave an IC50 of 24.4 nM.

In turn, `CCOC(=O)C(O)(c1ccc(NC(=O)NC2CCCCC2)cc1)C(F)(F)F` (stereo not drawn) [2-[4-(cyclohexylcarbamoylamino)phenyl]-3,3,3-trifluoro-2-hydroxy-propionic acid ethyl ester] displayed an IC50 of 121 nM.

For the compound `CCN(CC)S(=O)(=O)c1ccc(N=C2NS(=O)(=O)c3ccccc32)cc1` [4-(1,1-Dioxo-1H-1lambda*6*-benzo[d]isothiazol-3-ylamino)-N,N-diethyl-benzenesulfonamide], the IC50 was above 10000 nM.

`CCOC(=O)c1sc(NC(=O)Nc2ccc(Cl)cc2)cc1C` [5-[(4-chlorophenyl)carbamoylamino]-3-methyl-thiophene-2-carboxylic acid ethyl ester] registered an IC50 of 63.1 nM.

Regarding `CCOC(=O)c1sc(NC(=O)c2ccc(Cl)s2)cc1C` [5-[(5-chlorothiophene-2-carbonyl)amino]-3-methyl-thiophene-2-carboxylic acid ethyl ester], the midpoint of inhibition, the IC50, lay at 82.8 nM.

As for `CC(C)(C)c1ccc(S(=O)(=O)N2CCC(c3nc4cc(Cl)ccc4[nH]3)CC2)cc1` [2-[1-(4-tert-butylphenyl)sulfonylpiperidin-4-yl]-6-chloranyl-1H-benzimidazole], the IC50 was above 10000 nM.

Compound `CC(C)CN(C#N)c1nc(N2CCOCC2)nc(N2CCOCC2)n1` [(4,6-dimorpholin-4-yl-1,3,5-triazin-2-yl)-(2-methylpropyl)cyanamide] displayed a concentration for half-maximal inhibition (IC50) above 10000 nM.

Turning to `COC(=O)c1ccc(S(=O)(=O)N2C3CCC2CC(NC(=O)NC2CCCCC2)C3)cc1` (stereo not drawn) [4-[3-(3-Cyclohexyl-ureido)-8-aza-bicyclo[3.2.1]octane-8-sulfonyl]-benzoic acid methyl ester], it took 8.9 nM to reach half-maximal inhibition (IC50). That is a single-digit nanomolar value.

`Clc1ccc(CON=CNc2ncnc3sccc23)cc1` [N-[(4-chlorophenyl)methoxy]-N'-thieno[2,3-d]pyrimidin-4-yl-methanimidamide] yielded an IC50 above 10000 nM.

Turning to `CCOC(=O)CSc1ccc(-c2nc3cc(C)c(C)cc3[nH]2)cn1` [SMR000122535], the IC50 was above 10000 nM.

On to `COc1ccc(Cn2ccc(=O)c(Cc3c(Cl)cccc3Cl)c2C)cc1` [3-(2,6-dichlorobenzyl)-1-(4-methoxybenzyl)-2-methyl-4(1H)-pyridinone], for which the IC50 is above 10000 nM.

On to `Cc1ccccc1NC(=S)NCCC(c1ccccc1)c1ccccc1` [1-(3,3-diphenylpropyl)-3-(2-methylphenyl)thiourea], for which the IC50 was above 10000 nM.

The compound `Cc1cc(NS(=O)(=O)c2ccc(Nc3nc(-c4sc(NC(=O)c5ccccc5)nc4C)cs3)cc2)no1` [MLS000523248] showed an IC50 of 19.8 nM.

Turning to `Cc1cc(Cl)c(OCCCNCc2ccccc2)c(Br)c1` [3-(2-bromanyl-6-chloranyl-4-methyl-phenoxy)-N-(phenylmethyl)propan-1-amine;ethanedioic acid], the IC50 is above 10000 nM.

For the compound `COc1ccc(S(=O)(=O)N2C3CCC2CC(NC(=O)NC2CCCCC2)C3)cc1` (stereo not drawn) [1-Cyclohexyl-3-[8-(4-methoxy-benzenesulfonyl)-8-aza-bicyclo[3.2.1]oct-3-yl]-urea], half-maximal inhibition (IC50) required 39.4 nM.

By IC50 is commonly meant the point on the concentration scale where inhibition reaches its midpoint. A lower IC50 goes with higher potency.

These data come from BindingDB's records for doi:10.7270/Q2DZ06QW (Columbia University Molecular Screening Center, 2008).
